According to patent US6214795A, “Peptide compounds useful for modulating FGF receptor activity” (Praecis Pharmaceuticals, Inc., priority 1996, dated 2001):
Where two headings read alike, the source gives them in different places. Residues, ends and D or L forms follow the SMILES beside them. No end group written: not given here. *: point of attachment. Biotin = O=C1N[C@H]2[C@H](CS[C@H]2CCCCC(=O)*)N1

Assays:
[1] = molecular target: FGFR2-IIIC (Homo sapiens, UniProt P21802); assay: FGF receptor binding assay: inhibition of 125I-bFGF binding to FGF receptor
Chain of FGFR2-IIIC (P21802 22-377 limits assumed, species assumed): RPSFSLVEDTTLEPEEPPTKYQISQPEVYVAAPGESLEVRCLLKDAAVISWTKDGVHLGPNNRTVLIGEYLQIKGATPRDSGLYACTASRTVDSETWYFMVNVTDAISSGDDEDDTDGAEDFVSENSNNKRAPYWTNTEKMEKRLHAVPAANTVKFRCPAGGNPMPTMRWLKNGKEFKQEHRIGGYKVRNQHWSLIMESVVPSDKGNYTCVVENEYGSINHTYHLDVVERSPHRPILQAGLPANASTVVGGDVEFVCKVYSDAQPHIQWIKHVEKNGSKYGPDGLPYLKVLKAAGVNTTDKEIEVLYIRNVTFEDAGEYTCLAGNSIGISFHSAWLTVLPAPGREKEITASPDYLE
Experimental: The ability of a peptide compound to bind to an FGF receptor can be determined using one or both of the receptor binding assays described in this example, which measure the ability of a test compound to inhibit the binding of radiolabeled bFGF to the FGF receptor. The first assay is a cell-based assay, utilizing FGF receptor-expressing cells. Cells expressing an FGF receptor are seeded on a 96 well plate (50,000 cells/well) and incubated overnight at 37° C., 5% CO2. The cells are then washed once with binding buffer (Dulbecco's Modified Eagle's Medium (DMEM) with HEPES, gelatin and heparin). A test peptide is diluted to the desired concentration in binding buffer with heparin (15 U/ml) and added to the cells (25 μl per well). ^125 I-bFGF (50,000 cpm/well; Amersham Life Sciences), diluted in binding buffer with heparin, is added to each well (25 μl per well so that final volume is 50 μl). The cells are incubated in a humidified chamber at 4° C. for 3 hours. The cells are washed twice with binding buffer to remove unbound material. The washed cells are then dissolved in 100 μl of 1N NaOH and counted in a gamma counter. The ability of a test compound to bind to FGFR is evidenced by the reduced binding of ^125 I-bFGF to the cells in the presence of the test compound as compared to the binding of ^125 I-bFGF to the cells in the absence of the test compound.
A second FGFR binding assay utilizes biotinylated soluble FGFR. Biotinylated FGFR is mixed in an eppendorf tube with ^125 I-bFGF and a test compound in binding buffer. The tubes are placed on an eppendorf roller at 4° C. for 1.5 hours. Magnetic streptavidin beads (CPG, Inc.) are prepared by washing twice with binding buffer. After the 1.5 hour incubation of the tubes, 15 μl of magnetic streptavidin beads are added to each tube and continued on the eppendorf roller for 10 minutes at 4° C. to allow the strepavidin to interact with the biotinylated FGFR. The tubes are removed from the roller and spun down in a microfuge for 2 minutes at 3000 rpm. Using magnets, the magnetic beads are washed twice with binding buffer. 100 μl of binding buffer is added to each tube and the contents are moved to a 12×75 mm test tube. The contents (i.e., strepavidin beads, with biotinylated FGFR and ^125 I-bFGF bound thereto) are counted in a Gamma counter. The ability of a test compound to bind to FGFR is evidenced by the reduced binding of ^125 I-bFGF to the biotinylated FGFR in the presence of the test compound as compared to the binding of ^125 I-bFGF to the biotinylated FGFR in the absence of the test compound.

[2] = test system: NIH 3T3 cells; assay type: cell-based
Experimental: A second functional assay for FGFR is a proliferation assay, based on the fact that NIH 3T3 cells show enhanced growth in the presence of increasing concentrations of bFGF. NIH 3T3 cells are cultured (e.g., about 3 days) with bFGF (10 nM) in the presence or absence of a test peptide compound. Cell growth is quantitated using a standard method for detecting cell growth, such as tritiated thymidine incorporation or uptake of 3, ([…])2,5-diphenyl-tetrazolium bromide (MTT). MTT (commercially available from Sigma Chemical Co.) is a chromogenic substrate that is converted from yellow to blue in viable cells, which can be detected spectrophotometrically.

[3] = test system: p42-MAP kinase; assay: Signal transduction assay: bFGF-induced phosphorylation/activation of MAP kinase in NIH 3T3 cells; assay type: cell-based
Description: The effect of peptide compounds on the functional activity of an FGF receptor can be evaluated in one or both of the functional assays described in this example. The first assay is a signal transduction assay, exploiting the fact that bFGF binding to FGFR initiates a phosphorylation cascade that includes the phosphorylation of MAP kinase (MAP-K). Accordingly, the ability of a test compound to modulate bFGF-induced phosphorylation of MAP-K is examined. NIH 3T3 cells are synchronized to quiescence by growing in medium containing 0.5% fetal bovine serum (FBS) for 2 days. The cells are then shifted into fresh 0.5% FBS-containing medium for 2 hours to reduce the basal level of MAP-K phosphorylation before the experiment. Test peptide compounds are dissolved in fresh dimethyl sulfoxide (DMSO) to 100 mg/ml and series dilutions are made in DMSO. […] Phosphorylation of MAP-K in the 3T3 cells is initiated by incubating the cells with the bFGF-containing medium in the presence or absence of test peptide for 15 minutes at 37° C. The phosphorylation is stopped by washing with cells with PBS and lysing the cells with sodium […] (SDS)-containing buffer. Cell lysates are separated on 12% SDS polyacrylamide gels and the proteins are transferred onto PVDF membranes. Membrane-bound cellular proteins are probed with a rabbit anti-phosphoMAP-K antibodies, followed by a goat anti-rabbit secondary antibody, labeled with horse radish peroxidase. The blots are then detected by the enhanced chemiluminescence (ECL) method.

[4] = Table 3 peptides, inhibition of bFGF binding to FGFR2-IIIC
[5] = Table 5 peptides (bFGF-binding peptides)
[6] = Table 3 peptides, values given in mM
[7] = Table 3 peptides, bFGF-induced MAP-K phosphorylation, read-out: MAP-K

| Molecule | IC50 [1, 4] | IC50 [2] | further results |
| --- | --- | --- | --- |
| GKALEWYKSLMRMG-NH2 [Compound 661, H-GKALEWYKSLMRMG-NH*TFA] | ~0.3 mM |  |  |
| Ac-GSWGDWERSGDWFG-NH2 [Compound 512, Acetyl-GSWGDWERSGDWFG-NH] |  | > 100 µM | IC50 [1, 5]: > 0.1 mM |
| YLRQYLMRFR-NH2 [Compound 671, H-YLRQYLMRFR-NH*TFA] | ~0.008 mM |  | Binding IC50 [1, 4]: does not appear to further increase the IC50 |
| GAHYLRQYMMRFLG-NH2 [Compound 669, H-GAHYLRQYMMRFLG-NH*TFA] | ~0.02 mM |  |  |
| GYFQYMALYG [Compound 567, H-GYFQYMALYG-OH*TFA] | > 0.1 mM |  |  |
| ADGAAGYDWDDLLSGAA-NH2 [Compound 475, H-ADGAAGYDWDDLLSGAA-NH*TFA] |  | > 100 µM | IC50 [1, 5]: > 0.1 mM |
| Ac-GHDGEMYG-OH [Compound 660, Acetyl-GHDGEMYG-OH] |  |  | IC50 [1, 6]: > 1 mM |
| GSLMRMG-NH2 [Compound 663, H-GSLMRMG-NH*TFA] |  |  | IC50 [1, 6]: > 1 mM |
| GDVFLSMYQFSVIG [Compound 622, H-GDVFLSMYQFSVIG-OH*TFA] | > 0.1 mM |  |  |
| ADGAAGSWGDWERSGDWFGGAA-NH2 [Compound 509] |  | > 100 µM | IC50 [1, 5]: > 0.1 mM |
| CC(C)C[C@H](NC(=O)[C@H](CC(C)C)NC(=O)[C@H](CC(=O)O)NC(=O)[C@H](CC(=O)O)NC(=O)[C@H](Cc1c[nH]c2ccccc12)NC(=O)[C@H](CC(=O)O)NC(=O)[C@H](Cc1ccc(O)cc1)NC(=O)CNC(=O)[C@H](C)NC(=O)[C@H](C)NC(=O)CNC(=O)[C@H](CC(=O)O)NC(=O)[C@H](C)NC(=O)CCCC[C@@H]1SC[C@@H]2NC(=O)N[C@@H]21)C(=O)NCC(=O)NCC(=O)N[C@@H](C)C(=O)N[C@@H](C)C(N)=O [Compound 478, Biotin-ADGAAGYDWDDLLGGAA-NH] (Biotin-ADGAAGYDWDDLLGGAA-NH2) |  | > 100 µM | IC50 [1, 5]: > 0.1 mM |
| CC(C)C[C@H](NC(=O)[C@H](CC(=O)O)NC(=O)[C@@H](NC(=O)[C@H](CS)NC(=O)CNC(=O)[C@H](C)NC(=O)[C@H](C)NC(=O)CNC(=O)[C@H](CC(=O)O)NC(=O)[C@H](C)N)C(C)C)C(=O)N[C@@H](Cc1ccc(O)cc1)C(=O)N[C@@H](Cc1c[nH]cn1)C(=O)N[C@@H](Cc1ccc(O)cc1)C(=O)N[C@H](C(=O)N[C@@H](Cc1ccc(O)cc1)C(=O)N[C@@H](CS)C(=O)NCC(=O)NCC(=O)N[C@@H](C)C(=O)N[C@@H](C)C(N)=O)C(C)C [Compound 507] (H-ADGAAGCVDLYHYVYCGGAA-NH2) |  | 10 to 100 µM | Effect on proliferative activity of bFGF ([2]; NIH 3T3 cells): antagonists of the proliferative activity of bFGF |
| GAHNLRQYLMRFLG [Compound 623, H-GAHNLRQYLMRFLG-OH*TFA] | ~0.12 mM | ~100 µM | IC50 [3, 7]: ~50 µM; Effect on activation of MAP-K by bFGF ([3]; increasing concentrations of compound): clearly antagonized |
| GYYLLWMVG [Compound 564, H-GYYLLWMVG-OH*TFA] | > 0.1 mM |  |  |
| bFGF: basic fibroblast growth factor, the FGF receptor ligand used as stimulus and unlabeled competitor [reference compound] |  |  | Activation of MAP-K ([3]; 1 and 10 nM, without test peptide, FIG. 3): 40-60% |
| GFLGKYMESLMRMG-NH2 [Compound 659, H-GFLGKYMESLMRMG-NH*TFA] | ~0.3 mM |  |  |
| GAHYLRQYLMRFRG-NH2 [Compound 668, H-GAHYLRQYLMRFRG-NH*TFA] | ~0.003 mM |  |  |
| CC(C)C[C@H](NC(=O)[C@H](CC(C)C)NC(=O)[C@H](CC(=O)O)NC(=O)[C@H](CC(=O)O)NC(=O)[C@H](Cc1c[nH]c2ccccc12)NC(=O)[C@H](CC(=O)O)NC(=O)[C@H](Cc1ccc(O)cc1)NC(=O)CNC(=O)[C@H](C)NC(=O)[C@H](C)NC(=O)CNC(=O)[C@H](CC(=O)O)NC(=O)[C@H](C)NC(=O)CCCC[C@@H]1SC[C@@H]2NC(=O)N[C@@H]21)C(=O)N[C@@H](CO)C(=O)NCC(=O)N[C@@H](C)C(=O)N[C@@H](C)C(N)=O [Compound 476, Biotin-ADGAAGYDWDDLLSGAA-NH] (Biotin-ADGAAGYDWDDLLSGAA-NH2) |  | > 100 µM | IC50 [1, 5]: > 0.1 mM |
| CC(=O)NCC(=O)N[C@@H](CS)C(=O)N[C@H](C(=O)N[C@@H](CC(=O)O)C(=O)N[C@@H](CC(C)C)C(=O)N[C@@H](Cc1ccc(O)cc1)C(=O)N[C@@H](Cc1c[nH]cn1)C(=O)N[C@@H](Cc1ccc(O)cc1)C(=O)N[C@H](C(=O)N[C@@H](Cc1ccc(O)cc1)C(=O)N[C@@H](CS)C(=O)NCC(N)=O)C(C)C)C(C)C [Compound 514, Acetyl-GCVDLYHYVYCG-NH] (Ac-GCVDLYHYVYCG-NH2) |  | 10 to 100 µM | IC50 ([3]; Table 5 peptides, read-out: MAP-K): ~50 µM; Effect on proliferative activity of bFGF ([2]; NIH 3T3 cells): antagonists of the proliferative activity of bFGF |
| AHYLRQYLMRFR-NH2 [Compound 673, H-AHYLRQYLMRFR-NH*TFA] | ~0.008 mM |  |  |
| LRQYLMRFR-NH2 [Compound 670, H-LRQYLMRFR-NH*TFA] | ~0.12 mM |  |  |
| GYLAQYMARG-NH2 [Compound 662, H-GYLAQYMARG-NH*TFA] | ~0.3 mM |  |  |
| CC(=O)NCC(=O)N[C@@H](CS)C(=O)N[C@H](C(=O)N[C@@H](CC(C)C)C(=O)N[C@@H](CC(C)C)C(=O)N[C@@H](Cc1ccc(O)cc1)C(=O)N[C@@H](CC(=O)O)C(=O)N[C@@H](CCC(=O)O)C(=O)N[C@@H](CCCNC(=N)N)C(=O)N[C@H](C(=O)N[C@@H](CS)C(=O)NCC(N)=O)[C@@H](C)O)C(C)C [Compound 513, Acetyl-GCVLLYDERTCG-NH] (Ac-GCVLLYDERTCG-NH2) |  | > 100 µM |  |
| GFLMMYMMG [Compound 566, H-GFLMMYMMG-OH*TFA] | > 0.1 mM |  |  |
| ADGAAGYDWDDLLGGAA-NH2 [Compound 477, H-ADGAAGYDWDDLLGGAA-NH*TFA] |  | > 100 µM | IC50 [1, 5]: > 0.1 mM |
| GAHYLRQYLMRFLG-NH2 [Compound 658, H-GAHYLRQYLMRFLG-NH*TFA] | ~0.008 mM |  | IC50 ([3]; 1 nM bFGF, FIG. 5, read-out: Concentration that half maximally antagonizes bFGF activation of MAP-K): ~3 µM; IC50 [3, 7]: ~1 µM; IC50 ([2]; NIH 3T3 cells, 10 nM bFGF, FIG. 6, read-out: Concentration that half maximally reduces bFGF-induced proliferation): 40 µM |
| HYLRQYLMRFR-NH2 [Compound 672, H-HYLRQYLMRFR-NH*TFA] | ~0.008 mM |  |  |
| GYLYLYMVG [Compound 656, H-GYLYLYMVG-OH*TFA] | > 0.1 mM |  |  |
